Assay results reported in PubChem BioAssay AID2060509 (Molecular Pharmacology Branch, DTP, NCI, 2025).
pIC50: −log10 of the molar value.

Test system: 485176-168-R4-J1-PDC spheroids with HUVEC/MSC, viability
Experiment: Anticancer human tumor 485176-168-R4-J1-PDC patient-derived pancreatic adenocarcinoma cell line growth inhibition [GQUAD]
Conditions: for pIC50: curve of first compound; for viability, T/C: stronger effect = lower value
Outline: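 Tumor cells were grown as complex spheroids with HUVEC endothelial cells and mesenchymal stem cells as stroma. G-quadruplex stabilizers were combined with targeted agents over half-log dilutions from near the clinical Cmax, or from 10 microM.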

[1] = second compound 0.0316 µM, first compound 0.0316 µM
[2] = second compound 0.0316 µM, first compound 0.1 µM
[3] = second compound 0.0316 µM, first compound 0.316 µM
[4] = second compound 0.0316 µM, first compound 1 µM
[5] = second compound 0.0316 µM, first compound 3.16 µM
[6] = second compound 0.0316 µM, first compound 10 µM
[7] = second compound 0.1 µM, first compound 0.0316 µM
[8] = second compound 0.1 µM, first compound 0.1 µM
[9] = second compound 0.1 µM, first compound 0.316 µM
[10] = second compound 0.1 µM, first compound 1 µM
[11] = second compound 0.1 µM, first compound 3.16 µM
[12] = second compound 0.1 µM, first compound 10 µM
[13] = second compound 0.316 µM, first compound 0.0316 µM
[14] = second compound 0.316 µM, first compound 0.1 µM
[15] = second compound 0.316 µM, first compound 0.316 µM
[16] = second compound 0.316 µM, first compound 1 µM
[17] = second compound 0.316 µM, first compound 3.16 µM
[18] = second compound 0.316 µM, first compound 10 µM
[19] = second compound 1 µM, first compound 0.0316 µM
[20] = second compound 1 µM, first compound 0.1 µM
[21] = second compound 1 µM, first compound 0.316 µM
[22] = second compound 1 µM, first compound 1 µM
[23] = second compound 1 µM, first compound 3.16 µM
[24] = second compound 1 µM, first compound 10 µM
[25] = second compound 3.16 µM, first compound 0.0316 µM
[26] = second compound 3.16 µM, first compound 0.1 µM
[27] = second compound 3.16 µM, first compound 0.316 µM
[28] = second compound 3.16 µM, first compound 1 µM
[29] = second compound 3.16 µM, first compound 3.16 µM
[30] = second compound 3.16 µM, first compound 10 µM
[31] = second compound 10 µM, first compound 0.0316 µM
[32] = second compound 10 µM, first compound 0.1 µM
[33] = second compound 10 µM, first compound 0.316 µM
[34] = second compound 10 µM, first compound 1 µM
[35] = second compound 10 µM, first compound 3.16 µM
[36] = second compound 10 µM, first compound 10 µM
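Note: spheroids exposed to compounds for seven days before readout.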
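Throughout, for viability, T/C: percent viability relative to DMSO vehicle control wells as 100%.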

Work on `COc1cccc2c1C(=O)c1c(O)c3c(c(O)c1C2=O)CC(O)(C(=O)CO)CC3OC1CC(N)C(O)C(C)O1` (stereo not drawn) + CN(C)c1ccc(Nc2c3ccc(NC(=O)CCN4CCCC4)cc3nc3cc(NC(=O)CCN4CCCC4)ccc23)cc1 yielded a pIC50 (second compound 0.0316 µM) of 6.57, a pIC50 (second compound 0.1 µM) of 6.58 and a pIC50 (second compound 0.316 µM) of 6.38. For the same compound, the pIC50 (second compound 1 µM) was 6.39, the pIC50 (second compound 3.16 µM) was 6.40 and the pIC50 (second compound 10 µM) was 6.52. The viability, T/C [1] was 104%, the viability, T/C [2] was 65.5% and the viability, T/C [3] was 59.2%. For the same compound, the viability, T/C [4] was 15.4%, the viability, T/C [5] was 3.54% and the viability, T/C [6] was 0.22%. The viability, T/C [7] was 95.2%, the viability, T/C [8] was 70.9% and the viability, T/C [9] was 49.2%. It also gave a viability, T/C [10] of 17.8%, a viability, T/C [11] of 2.43% and a viability, T/C [12] of 0.16%. For the same compound, the viability, T/C [13] was 84.9%, the viability, T/C [14] was 67% and the viability, T/C [15] was 62%. The viability, T/C [16] was 22.5%, the viability, T/C [17] was 3.97% and the viability, T/C [18] was 0.2%. It also gave a viability, T/C [19] of 99.5%, a viability, T/C [20] of 78.2% and a viability, T/C [21] of 64.1%. For the same compound, the viability, T/C [22] was 17.4%, the viability, T/C [23] was 4.15% and the viability, T/C [24] was 0.16%. For the same compound, the viability, T/C [25] was 84.2%, the viability, T/C [26] was 83.2% and the viability, T/C [27] was 53.4%. It also gave a viability, T/C [28] of 25.7%, a viability, T/C [29] of 2.96% and a viability, T/C [30] of 0.21%. The viability, T/C [31] was 72.2%, the viability, T/C [32] was 68.4% and the viability, T/C [33] was 48.5%. For the same compound, the viability, T/C [34] was 22.9%, the viability, T/C [35] was 5.36% and the viability, T/C [36] was 0.33%.

In the case of `C=CCn1c(=O)c2cnc(Nc3ccc(N4CCN(C)CC4)cc3)nc2n1-c1cccc(C(C)(C)O)n1` + Cc1cnc(CNC(=O)c2c(=O)c3ccc(N4CCCN(C)CC4)nc3n3c2sc2ccccc23)cn1, the pIC50 (second compound 0.0316 µM) was 6.63, the pIC50 (second compound 0.1 µM) was 6.78 and the pIC50 (second compound 0.316 µM) was 6.91. The pIC50 (second compound 1 µM) was 7.44, the pIC50 (second compound 3.16 µM) was > 7.50 and the pIC50 (second compound 10 µM) was > 7.50. It also gave a viability, T/C [1] of 81.7%, a viability, T/C [2] of 64.8% and a viability, T/C [3] of 47.2%. It also gave a viability, T/C [4] of 11.5%, a viability, T/C [5] of 7.79% and a viability, T/C [6] of 3.94%. It also gave a viability, T/C [7] of 69.3%, a viability, T/C [8] of 70.4% and a viability, T/C [9] of 24.1%. It also gave a viability, T/C [10] of 10.6%, a viability, T/C [11] of 6.45% and a viability, T/C [12] of 3.77%. It also gave a viability, T/C [13] of 64%, a viability, T/C [14] of 55.9% and a viability, T/C [15] of 25%. For the same compound, the viability, T/C [16] was 9.59%, the viability, T/C [17] was 6.42% and the viability, T/C [18] was 3.31%. The viability, T/C [19] was 52%, the viability, T/C [20] was 36.4% and the viability, T/C [21] was 22.1%. For the same compound, the viability, T/C [22] was 10.2%, the viability, T/C [23] was 5.94% and the viability, T/C [24] was 4.18%. The viability, T/C [25] was 47.6%, the viability, T/C [26] was 40.1% and the viability, T/C [27] was 18.2%. For the same compound, the viability, T/C [28] was 9.87%, the viability, T/C [29] was 4.56% and the viability, T/C [30] was 5.42%. It also gave a viability, T/C [31] of 34.4%, a viability, T/C [32] of 37.5% and a viability, T/C [33] of 24.6%. It also gave a viability, T/C [34] of 10.6%, a viability, T/C [35] of 0.49% and a viability, T/C [36] of 0.25%.

With `CC(C)(O)C1CCC(Nc2ccc3ncc(-c4cccc(C(F)(F)F)c4)n3n2)CC1` (stereo not drawn) + CN(C)c1ccc(Nc2c3ccc(NC(=O)CCN4CCCC4)cc3nc3cc(NC(=O)CCN4CCCC4)ccc23)cc1 the pIC50 (second compound 0.0316 µM) was < 5.00, the pIC50 (second compound 0.1 µM) was < 5.00 and the pIC50 (second compound 0.316 µM) was < 5.00. For the same compound, the pIC50 (second compound 1 µM) was 5.20, the pIC50 (second compound 3.16 µM) was 5.56 and the pIC50 (second compound 10 µM) was 5.82. For the same compound, the viability, T/C [1] was 101%, the viability, T/C [2] was 104% and the viability, T/C [3] was 86.1%. For the same compound, the viability, T/C [4] was 78.8%, the viability, T/C [5] was 56.7% and the viability, T/C [6] was 51.1%. It also gave a viability, T/C [7] of 83.8%, a viability, T/C [8] of 89.5% and a viability, T/C [9] of 88.7%. It also gave a viability, T/C [10] of 77.7%, a viability, T/C [11] of 64.5% and a viability, T/C [12] of 51%. The viability, T/C [13] was 104%, the viability, T/C [14] was 84.6% and the viability, T/C [15] was 100%. The viability, T/C [16] was 97.9%, the viability, T/C [17] was 56.2% and the viability, T/C [18] was 59.1%. For the same compound, the viability, T/C [19] was 111%, the viability, T/C [20] was 104% and the viability, T/C [21] was 82.2%. It also gave a viability, T/C [22] of 91.4%, a viability, T/C [23] of 56.6% and a viability, T/C [24] of 42.1%. The viability, T/C [25] was 88.1%, the viability, T/C [26] was 81.1% and the viability, T/C [27] was 92.1%. The viability, T/C [28] was 97.7%, the viability, T/C [29] was 44.4% and the viability, T/C [30] was 37.3%. It also gave a viability, T/C [31] of 89%, a viability, T/C [32] of 85.7% and a viability, T/C [33] of 72.6%. It also gave a viability, T/C [34] of 65.9%, a viability, T/C [35] of 25.4% and a viability, T/C [36] of 16.4%.

With `Cc1cccc(N(C)C(=O)C2C(O)CCN2c2nc(C)cc(C(F)(F)F)c2C#N)c1` (stereo not drawn) + Cc1cnc(CNC(=O)c2c(=O)c3ccc(N4CCCN(C)CC4)nc3n3c2sc2ccccc23)cn1 the pIC50 (second compound 0.0316 µM) was < 5.00, the pIC50 (second compound 0.1 µM) was < 5.00 and the pIC50 (second compound 0.316 µM) was < 5.00. The pIC50 (second compound 1 µM) was < 5.00, the pIC50 (second compound 3.16 µM) was > 7.50 and the pIC50 (second compound 10 µM) was > 7.50. The viability, T/C [1] was 91.9%, the viability, T/C [2] was 100% and the viability, T/C [3] was 89%. The viability, T/C [4] was 97.2%, the viability, T/C [5] was 96% and the viability, T/C [6] was 98.3%. For the same compound, the viability, T/C [7] was 64.2%, the viability, T/C [8] was 78% and the viability, T/C [9] was 78.6%. The viability, T/C [10] was 67.9%, the viability, T/C [11] was 65.8% and the viability, T/C [12] was 67.8%. For the same compound, the viability, T/C [13] was 66.8%, the viability, T/C [14] was 64% and the viability, T/C [15] was 56.3%. For the same compound, the viability, T/C [16] was 60.9%, the viability, T/C [17] was 66.6% and the viability, T/C [18] was 60.5%. The viability, T/C [19] was 52%, the viability, T/C [20] was 45.5% and the viability, T/C [21] was 53.9%. For the same compound, the viability, T/C [22] was 45.9%, the viability, T/C [23] was 57.1% and the viability, T/C [24] was 47.5%. The viability, T/C [25] was 44%, the viability, T/C [26] was 47.9% and the viability, T/C [27] was 39.5%. It also gave a viability, T/C [28] of 43.3%, a viability, T/C [29] of 47.8% and a viability, T/C [30] of 40.7%. The viability, T/C [31] was 42.7%, the viability, T/C [32] was 39% and the viability, T/C [33] was 43.4%. The viability, T/C [34] was 38.1%, the viability, T/C [35] was 45.7% and the viability, T/C [36] was 40.6%.
